The target of assay [1] is T1, T7 RNA polymerase (Escherichia phage T7, UniProt P00573). Description: IVT capping rate of mRNA by LC-MS after RNase H cleavage. The conditions noted are these: for Capping rate: LC-MS of mRNA transcribed with the cap analog; for capping efficiency compared with Comparative Example 1 (in words): text summary of Table 4. It is filed as biochemical. The method, then:
(§1) In-vitro synthesis of mRNA cap analogs modified with vinylphosphonic acid: Firstly, a plasmid was linearized with NotI and digested at […] overnight. A DNA template was extracted. mRNAs were synthesized by in-vitro transcription using the vinylphosphonic acid-modified mRNA cap analogs of Examples 1-7 and compounds 10-13, 16, 17, 25, 31 and 34, and the cap analog of Comparative Example 1 as cap structures, respectively.
(§2) Note: During the experiment, the volume of the materials required for the system was calculated firstly, and then sample loading was performed. Firstly, sterile enzyme-free water was added into the system, and then 10× buffer, NTPs, and the cap analog were sequentially added. The mixture was uniformly mixed and then gently centrifuged, followed by addition of the nuclease inhibitor, the inorganic pyrophosphatase, the T7 RNA polymerase, and the linearized DNA template. The mixture was well mixed, then gently centrifuged, and incubated at 37° C. After 2 h, DNase I (1 U) was added, and the mixture was incubated at 37° C. for another 30 min to remove the DNA template. RNA purification was then performed (usually using the magnetic bead purification method). The purified mRNA was dissolved in sterile enzyme-free water, and then quantitative detection was performed by using Nanodrop One.
Liquid chromatography-mass spectrometry (LC-MS) was used to detect the IVT capping rates of mRNAs with different starting cap analogs. Firstly, a labeled (usually biotin-labeled) DNA probe matched with the starting base of mRNA as the transcript product was required to be designed, and streptavidin-labeled magnetic beads were washed, and then incubated with the synthesized DNA probe, mRNA and 10× RNase H reaction buffer with slowly mixing at room temperature for 30 min. 20 L of RNase H (5 U/μL) was then added, and the mixture was incubated at 37° C. for 3 h, with uniform mixing every half hour. After the incubation was completed, the magnetic beads were cleaned, and then 100 μL of 75% methanol heated to 80° C. was added to the cleaned magnetic beads. The mixture was heated to 80° C. on a heating plate, held for 3 min, and then placed on a magnetic rack. The supernatant was pipetted and dried at room temperature for 45 min to 10 Lby using an evaporation centrifuge. The sample was then resuspended in 50 μL of 100 μM EDTA/1% MeOH for LC-MS analysis to determine the capping of RNA in the transcription reaction. Due to the significant difference in molecular weight between capped and uncapped bases, the capping rates of mRNA transcription initiated with different cap analogs can be determined by using the difference in molecular weight.

For assay [2], the target named is eukaryotic initiation factor (elF4E) (Homo sapiens, UniProt P06730). Description: Assay of binding ability to eukaryotic initiation factor (elF4E), Biacore T100. The settings on record: cap analog to elF4E protein; running buffer pH 6.0 or 7.4; read-out: Binding constant (converted). The method, then:
Test method: Firstly, experimental samples, including the cap analog samples of Examples 1-7, compounds 10-13, 16, 17, 25, 31 and 34, and Comparative Example 1, were diluted with a running buffer (50 mM phosphate, 100 mM sodium chloride, and 0.01% vol/vol Tween 20, pH 6.0 or 7.4). The sample injection time was […], the sample injection flow rate was 20 L/min, and the dissociation time was […]. The residual samples were eluted with a regeneration buffer (10 mM HEPES, 150 mM NaCl, and 0.010% vol/vol Tween 20, pH 7.4) for 30 s at a flow rate of 30 μL/min. Finally, through analysis by Biacore T100 evaluation software (version 2.0.2), sensorgrams were generated and the binding constants were calculated.
On the technique in general: In SPR one partner is held on a chip, and binding of the other changes the refractive index at the surface.

Assay [3] deals with T1, T7 RNA polymerase. Description: mRNA in-vitro transcription yield with cap analog (T7 IVT, Nanodrop One quantification). In kind it is biochemical. The settings on record: for Yield: mRNA from 20 μL IVT system, 1 μl 100 mM cap analog, 1 μg template, 37° C. 2 h; for in-vitro transcription yield compared with Comparative Example 1 (in words): text summary of Table 4. The method, then: as §1, §2

T1 sequence (P00573 whole entry): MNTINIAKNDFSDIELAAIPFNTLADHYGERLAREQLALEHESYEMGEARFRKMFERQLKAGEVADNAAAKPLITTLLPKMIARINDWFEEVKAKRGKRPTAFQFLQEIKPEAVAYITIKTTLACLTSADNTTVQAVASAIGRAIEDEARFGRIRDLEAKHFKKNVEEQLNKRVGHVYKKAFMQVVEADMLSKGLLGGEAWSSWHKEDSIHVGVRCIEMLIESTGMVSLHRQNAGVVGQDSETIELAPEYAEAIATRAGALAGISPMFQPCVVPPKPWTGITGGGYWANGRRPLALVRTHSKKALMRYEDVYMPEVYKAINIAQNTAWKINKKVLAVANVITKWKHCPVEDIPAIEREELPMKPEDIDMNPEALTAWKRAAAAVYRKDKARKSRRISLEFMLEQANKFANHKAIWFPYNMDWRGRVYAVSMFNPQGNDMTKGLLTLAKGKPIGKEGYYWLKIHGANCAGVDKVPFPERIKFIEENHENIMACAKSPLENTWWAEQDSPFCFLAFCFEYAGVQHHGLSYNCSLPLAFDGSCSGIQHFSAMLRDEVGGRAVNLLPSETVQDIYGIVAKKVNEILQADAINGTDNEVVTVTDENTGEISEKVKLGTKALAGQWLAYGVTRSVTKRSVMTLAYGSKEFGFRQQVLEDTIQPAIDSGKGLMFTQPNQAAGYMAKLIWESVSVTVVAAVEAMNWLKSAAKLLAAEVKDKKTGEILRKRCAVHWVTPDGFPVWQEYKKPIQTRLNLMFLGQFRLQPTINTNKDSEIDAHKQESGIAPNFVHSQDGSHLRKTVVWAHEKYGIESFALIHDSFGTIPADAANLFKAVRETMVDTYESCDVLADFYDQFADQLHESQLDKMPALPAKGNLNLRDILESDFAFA
Sequence of eukaryotic initiation factor (elF4E) (P06730 whole entry): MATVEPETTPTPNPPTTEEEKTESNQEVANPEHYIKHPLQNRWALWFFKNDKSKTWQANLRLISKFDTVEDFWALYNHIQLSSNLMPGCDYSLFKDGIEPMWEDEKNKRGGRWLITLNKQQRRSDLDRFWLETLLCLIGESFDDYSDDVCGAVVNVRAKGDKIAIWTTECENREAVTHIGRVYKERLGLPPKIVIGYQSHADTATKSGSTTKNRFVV

The compound `COCCOC1C(O)[C@H](n2c[n+](C)c3c(=O)[nH]c(N)nc32)O[C@@H]1/C=C/P(=O)(O)OP(=O)(O)OP(=O)(O)OC[C@H]1O[C@@H](n2cnc3c(N)ncnc32)C(OC)C1OP(=O)(O)OC[C@H]1O[C@@H](n2cnc3c(=O)[nH]c(N)nc32)C(O)C1O` (stereo partly drawn) [Compound 10] returned a Capping rate in assay [1] of 96.4%. Besides, the Kd in assay [2] was 218 nM. For the same compound, in assay [3], the Yield was found to be 124 µg.
For the compound `COCC1C(O)[C@H](n2c[n+](C)c3c(=O)[nH]c(N)nc32)O[C@@H]1/C=C/P(=O)(O)OP(=O)(O)OP(=O)(O)OC[C@H]1O[C@@H](n2cnc3c(N)ncnc32)C(OC)C1OP(=O)(O)OC[C@H]1O[C@@H](n2cnc3c(=O)[nH]c(N)nc32)C(O)C1O` (stereo partly drawn) [Compound 11], in assay [1], the Capping rate amounted to 95.7%. Moreover, in assay [2], the Kd was 246 nM. The compound also displayed a Yield in assay [3] of 116 µg.
The like results for `COC1C(OP(=O)(O)OC[C@H]2O[C@@H](n3cnc4c(=O)[nH]c(N)nc43)C(O)C2O)[C@@H](COP(=O)(O)OP(=O)(O)OP(=O)(O)/C=C/[C@H]2O[C@@H](n3c[n+](C)c4c(=O)[nH]c(N)nc43)C(O)C2CNC(C)=O)O[C@H]1n1cnc2c(N)ncnc21` (stereo partly drawn) [Compound 12] were, in that order, 96.6%, 214 nM and 123 µg.
The corresponding values for `COC1C(OP(=O)(O)OC[C@H]2O[C@@H](n3cnc4c(=O)[nH]c(N)nc43)C(O)C2O)[C@@H](COP(=O)(O)OP(=O)(O)OP(=O)(O)/C=C/[C@H]2O[C@@H](n3c[n+](C)c4c(=O)[nH]c(N)nc43)CC2OC)O[C@H]1n1cnc2c(N)ncnc21` (stereo partly drawn) [Compound 13] are 95.4%, 265 nM and 112 µg.
The corresponding values for `COC1C(OP(=O)(O)OC[C@H]2O[C@@H](n3cnc4c(=O)[nH]c(N)nc43)C(O)C2O)[C@@H](COP(=O)(O)OP(=O)(O)OP(=O)(O)/C=C/[C@H]2O[C@@H](n3c[n+](C)c4c(=O)[nH]c(N)nc43)C(F)C2O)O[C@H]1n1cnc2c(N)ncnc21` (stereo partly drawn) [Compound 16] are 95.8%, 269 nM and 114 µg.
As to `COC1C(OP(=O)(O)OC[C@H]2O[C@@H](n3ccc(=O)[nH]c3=O)C(O)C2O)[C@@H](COP(=O)(O)OP(=O)(O)OP(=O)(O)/C=C/[C@H]2O[C@@H](n3c[n+](C)c4c(=O)[nH]c(N)nc43)C(O)C2CNC(C)=O)O[C@H]1n1cnc2c(N)ncnc21` (stereo partly drawn) [Compound 17], the Capping rate in assay [1] came out at 96.2%. Also, the Kd in assay [2] was 222 nM. Also, the Yield in assay [3] was determined as 122 µg.
The corresponding values for `COC1C(OP(=O)(O)OC[C@H]2O[C@@H](n3cnc4c(=O)[nH]c(N)nc43)C(O)C2O)[C@@H](/C=C\P(=O)(O)OP(=O)(O)OP(=O)(O)OC[C@H]2O[C@@H](n3c[n+](C)c4c(=O)[nH]c(N)nc43)C(O)C2CNC(C)=O)O[C@H]1n1cnc2c(N)ncnc21` (stereo partly drawn) [Compound 25] are 96.1%, 224 nM and 120 µg.
In assay [1], `COC1C(OP(=O)(O)OC[C@H]2O[C@@H](n3cnc4c(=O)[nH]c(N)nc43)C(O)C2O)[C@@H](COP(=O)(O)OP(=O)(O)OP(=O)(O)/C=C/[C@H]2O[C@@H](n3c[n+](C)c4c(=O)[nH]c(N)nc43)C(O)C2CN(C)C(C)=O)O[C@H]1n1cnc2c(N)ncnc21` (stereo partly drawn) [Compound 31] yielded a Capping rate of 95.7%. For the same compound, the Kd in assay [2] was 239 nM. Also, in assay [3], the Yield was 115 µg.
The like results for `CCCC(=O)NCC1C(O)[C@H](n2c[n+](C)c3c(=O)[nH]c(N)nc32)O[C@@H]1/C=C/P(=O)(O)OP(=O)(O)OP(=O)(O)OC[C@H]1O[C@@H](n2cnc3c(N)ncnc32)C(OC)C1OP(=O)(O)OC[C@H]1O[C@@H](n2cnc3c(=O)[nH]c(N)nc32)C(O)C1O` (stereo partly drawn) [Compound 34] were, in that order, 95.9%, 236 nM and 117 µg.
The like results for `COC1C(OP(=O)(O)/C=C/[C@H]2O[C@@H](n3cnc4c(=O)[nH]c(N)nc43)C(O)C2O)[C@@H](COP(=O)(O)OP(=O)(O)OP(=O)(O)OC[C@H]2O[C@@H](n3c[n+](C)c4c(=O)[nH]c(N)nc43)C(O)C2O)O[C@H]1n1cnc2c(N)ncnc21` (stereo partly drawn) [Example 1] were, in that order, 96.4%, 313 nM and 117 µg.
As to `COC1C(OP(=O)(O)OC[C@H]2O[C@@H](n3cnc4c(=O)[nH]c(N)nc43)C(O)C2O)[C@@H](COP(=O)(O)OP(=O)(O)OP(=O)(O)/C=C/[C@H]2O[C@@H](n3c[n+](C)c4c(=O)[nH]c(N)nc43)C(O)C2O)O[C@H]1n1cnc2c(N)ncnc21` (stereo partly drawn) [Example 2], the Capping rate in assay [1] is 96.3%. Besides, in assay [2], the Kd is 216 nM. Also, the Yield in assay [3] was 125 µg.
The corresponding values for `COC1C(OP(=O)(O)OC[C@H]2O[C@@H](n3cnc4c(=O)[nH]c(N)nc43)C(O)C2O)[C@@H](/C=C/P(=O)(O)OP(=O)(O)OP(=O)(O)OC[C@H]2O[C@@H](n3c[n+](C)c4c(=O)[nH]c(N)nc43)C(O)C2O)O[C@H]1n1cnc2c(N)ncnc21` (stereo partly drawn) [Example 3] are 95.3%, 240 nM and 122 µg.
Take `COC1[C@@H](OP(=O)(O)/C=C/[C@H]2O[C@@H](n3cnc4c(=O)[nH]c(N)nc43)C(O)[C@H]2O)[C@@H](COP(=O)(O)OP(=O)(O)OP(=O)(O)/C=C\[C@H]2O[C@@H](n3c[n+](C)c4c(=O)[nH]c(N)nc43)[C@@H](O)C2O)O[C@H]1n1cnc2c(N)ncnc21` (stereo partly drawn) [Example 4]: in assay [1], the Capping rate was determined as 94.5% and the “capping efficiency compared with Comparative Example 1 (in words)” value was “significantly lower than those of Comparative Example 1”. Besides, in assay [2], the Kd is 377 nM. For the same compound, in assay [3], the Yield worked out at 106 µg and the “in-vitro transcription yield compared with Comparative Example 1 (in words)” value is on record as “significantly lower than those of Comparative Example 1”.
Consider `COC1[C@@H](OP(=O)(O)OC[C@H]2O[C@@H](n3cnc4c(=O)[nH]c(N)nc43)C(O)[C@H]2O)[C@@H](/C=C\P(=O)(O)OP(=O)(O)OP(=O)(O)/C=C\[C@H]2O[C@@H](n3c[n+](C)c4c(=O)[nH]c(N)nc43)[C@@H](O)C2O)O[C@H]1n1cnc2c(N)ncnc21` (stereo partly drawn) [Example 5], for which, in assay [1], the Capping rate is on record as 90.2% and the “capping efficiency compared with Comparative Example 1 (in words)” value is recorded as “significantly lower than those of Comparative Example 1”. For the same compound, the Kd in assay [2] is 395 nM. For the same compound, in assay [3], the Yield is 102 µg and the “in-vitro transcription yield compared with Comparative Example 1 (in words)” value is given as “significantly lower than those of Comparative Example 1”.
Regarding `COC1[C@@H](OP(=O)(O)/C=C/[C@H]2O[C@@H](n3cnc4c(=O)[nH]c(N)nc43)C(O)[C@H]2O)[C@@H](/C=C\P(=O)(O)OP(=O)(O)OP(=O)(O)OC[C@H]2O[C@@H](n3c[n+](C)c4c(=O)[nH]c(N)nc43)[C@@H](O)C2O)O[C@H]1n1cnc2c(N)ncnc21` (stereo partly drawn) [Example 6], in assay [1], the Capping rate was found to be 87.3% and the “capping efficiency compared with Comparative Example 1 (in words)” value is “significantly lower than those of Comparative Example 1”. Besides, the Kd in assay [2] is 362 nM. Besides, in assay [3], the Yield was 96 µg and the “in-vitro transcription yield compared with Comparative Example 1 (in words)” value is recorded as “significantly lower than those of Comparative Example 1”.
